Where two headings read alike, the source gives them in different places. Marks after values point to notes of the source that are not given here.
Legend:
[1] = test system: corticosterone; assay: Plasma corticosterone levels (ELISA) in tumor-bearing mice; assay type: in vivo; conditions: A2058-bearing mice; day 35; 12 h circadian time; EGCG or Curc 50 mg/kg, ± CRC
Text: (§1) Measurement of ACTH, Corticosterone, and NORA Levels.
(§2) Plasma levels of ACTH (Calbiotech, Inc., Spring Valley, Calif.), corticosterone (Kamiyama Biomedical Co., Seattle, Wash.), and NORA (IBL, Hamburg, Germany) were quantified by ELISA according to the instructions of the suppliers.

[2] = test system: A2058 melanoma; assay: In vivo growth of A2058 melanoma xenografts in nu/nu mice; parameters: species or system human; conditions: A2058-RFP; day 35; EGCG or Curc 50 mg/kg i.v. every 48 h, ± CRC
[3] = test system: glucocorticoid receptors (GR); assay: GR content of human cancer cells by [3H]-labeled ligand whole-cell binding assay; conditions: A2058-RFP tumors; day 35; EGCG or Curc 50 mg/kg, ± CRC
[4] = for deaths in the treated groups: 50 mg/kg i.v. every 48 h
Description: FIG. 12. Effect of (−)-epigallocatechin-3-gallate (EGCG) or curcumin (Curc) treatment on (A) human melanoma (A2058) and (B) pancreatic cancer (AsPC-1) growth in vivo. EGCG or Curc were administered i.v. every 48 h for a period of 5 weeks, starting 1 week after tumor cell inoculation. For this purpose EGCG was dissolved in physiological saline, whereas Curc was dissolved in DMSO.

[5] = test system: ACTH; assay: Plasma ACTH levels (ELISA) in tumor-bearing mice; assay type: in vivo; conditions: A2058-bearing mice; day 35; 6 h circadian time; EGCG or Curc 50 mg/kg, ± CRC
Text: as §1, §2

[6] = test system: MelJuso melanoma cell line; assay: Effect of anti-melanoma chemotherapy on viability (IC50) of in vitro growing MelJuso; assay type: cell-based, human
Description: (§3) Human A2058, MeWo and MelJuso melanoma cells, and mouse AtT-20 pituitary corticotroph tumor cells were from the American Type Culture Collection (ATCC). Human HEMa-LP epidermal melanocytes were from Life Technologies (Grand Island, N.Y.). […] Cells were grown in Dulbecco's modified Eagle's medium (DMEM) (Invitrogen, San Diego, Calif.), pH 7.4, supplemented with 10% heat-inactivated FCS (Biochrom KG, Berlin, Germany), 100 units/ml penicillin and 100 μg/ml streptomycin. Cells were plated, at a density of 20,000 cells/cm2, and cultured at 37° C. in a humidified atmosphere with 5% CO2. […] Cell numbers were determined using a Coulter Counter (Coulter Electronic Inc., Miami, Fla.). Cells were allowed to attach for 12 h before any treatment addition.

[7] = test system: A2058 melanoma cell line; assay: Effect of anti-melanoma chemotherapy on viability (IC50) of in vitro growing A2058; assay type: cell-based, human
Description: as §3

[8] = test system: MeWo melanoma cell line; assay: Effect of anti-melanoma chemotherapy on viability (IC50) of in vitro growing MeWo; assay type: cell-based, human
Description: as §3

[9] = test system: A2058 cells isolated from tumor-bearing mice; assay: Chemosensitization of cultured A2058 cells isolated from xenografts; assay type: cell-based, human; conditions: isolated A2058 cells without in vivo Pter treatment
Description: FIG. 5. Chemosensitization effect of GSH depletion (A) or sod1-AS (B) in melanoma cells isolated from Pter-treated mice. Melanoma cells were cultured as in FIG. 1C. PAC.PBP (100 ng/ml) was added to the culture flasks 24 h after seeding. […] Data are mean values±SD for 5-6 different experiments (*p<0.01, comparing all experimental conditions vs controls).
FIGS. 18-25. Effect of piperlongumine and I-BET762, as GSH depleting and chemosensitizing agents, in in vitro growing human melanoma, pancreatic, breast, lung, liver, prostate, ovarian, and colorectal cancer cells. Cancer cells, isolated from Pter-treated tumor-bearing mice, were cultured as indicated under Methods. Chemotherapy (0.25 μM PAC.PBP in A2058 melanoma and MDA-MB-231 breast carcinoma cells; 0.125 μM PAC.PBP and 25 μM GTB in AsPC-1 pancreatic cancer cells; 1 μM VRB and 15 μM cisPt in A459 lung carcinoma cells; 0.15 μM DXR in HepG2 hepatocellular carcinoma cells; 15 nM DCT in PC-3 prostate carcinoma cells; 0.15 μM PAC.PBP and 25 μM CarboPt in SK-OV-3 ovarian carcinoma cells; 3 μM 5-FU, 1 μM FA and 0.6 μM IRI in HT-29 colorectal carcinoma cells) was added to the cultured flasks 24 h after seeding. PL (1 μM in A2058 and AsPC-1 cells; 0.5 μM in A549 and HT-29 cells; 0.2 μM in HepG2, PC-3, and SK-OV-3 cells; 0.1 μM in MDA-MB-231 cells) or I-BET762 (0.5 μM in HT-29 cells; 0.2 μM in A2058, AsPC-1, HepG2, PC-3, and SK-OV-3 cells; 0.1 μM in A549 and MDA-MB-231 cells) were added 6 h later. Data are mean values±SD for 4-5 different experiments per cell line (*p<0.05 and **p<0.01, comparing all experimental conditions versus control. PL, piperlongumine; PAC.PBP, paclitaxel protein-bound particles; GTB, gemcitabine; DXR, doxorubicin; VRB, vinorelbin; CisPt, cisplatin; docetaxel, DCT; CarboPt, carboplatin; 5-FU, 5-fluoracil; FA, folinic acid; IRI, irinotecan; 5-FU+FA+IRI=FOLFIRI).
Human A2058, MeWo and MelJuso melanoma cells, and mouse AtT-20 pituitary corticotroph tumor cells were from the American Type Culture Collection (ATCC). Human HEMa-LP epidermal melanocytes were from Life Technologies (Grand Island, N.Y.). Human MDA-MB-231 (triple negative: ER−, PR−, HER2−) and MCF-7 (ER+, PR+, HER2−) breast adenocarcinoma, A549 lung adenocarcinoma (NSCLC), HepG2 hepatocellular carcinoma, LNCaP (AR+) and PC-3 (AR−) prostate adenocarcinoma, SK-OV-3 epithelial ovarian carcinoma, and HT-29 and Caco-2 colorectal carcinoma cells were from the American Type Culture Collection. Cells were grown in Dulbecco's modified Eagle's medium (DMEM) (Invitrogen, San Diego, Calif.), pH 7.4, supplemented with 10% heat-inactivated FCS (Biochrom KG, Berlin, Germany), 100 units/ml penicillin and 100 μg/ml streptomycin. Cells were plated, at a density of 20,000 cells/cm2, and cultured at 37° C. in a humidified atmosphere with 5% CO2. Cells were harvested by incubation for 5 min with 0.05% (w/v) trypsin (Sigma, St. Louis, Mo.) in PBS (10 mM sodium phosphate, 4 mM KCl, 137 mM NaCl), pH 7.4, containing 0.3 mM EDTA, followed by the addition of 10% FCS to inactivate the trypsin. Cell numbers were determined using a Coulter Counter (Coulter Electronic Inc., Miami, Fla.). Cells were allowed to attach for 12 h before any treatment addition. Cellular viability was assessed as previously reported (Mena, S. et al. Clin Cancer Res 13, 2658-2666 (2007)), by measuring trypan blue exclusion and leakage of lactate dehydrogenase activity.
Isolation of Tumor Cells from Mouse Xenografts Using Enzymatic Digestion and a double Ficoll gradient. […]

[10] = test system: AtT-20 pituitary corticotroph tumor cells; assay: ACTH production and POMC expression in AtT-20 cells; assay type: cell-based, mouse; conditions: results not shown
Description: FIG. 3. Pterostilbene bioavailability in brain and the pituitary gland, and its effect on ACTH synthesis and POMC expression in AtT-20 cells. […] (B) Effect of pterostilbene on ACTH production by AtT-20 cells in a 24 h-period (measured between 24-48 h or between 48-72 h). […] After the 30 min period, culture flasks were washed out (three times with PBS) and the medium was renewed (controls received identical treatment).
as §2
RT-PCR and detection of mRNA was performed as described above. For Western blotting (see also above) POMC mouse monoclonal antibody (clone 2B2) from Origen (Rockville, Md.) were used.

Compound | IC50 ([6]; Homo sapiens, MEL-JUSO) | IC50 ([7]; Homo sapiens) | IC50 ([8]; Homo sapiens) | other results
O=C(O[C@@H]1Cc2c(O)cc(O)cc2O[C@@H]1c1cc(O)c(O)c(O)c1)c1cc(O)c(O)c(O)c1 [EGCG, (−)-epigallocatechin-3-gallate, reference compound] | – | – | – | CRC [1]: 243 ± 31 ng/mL plasma; Tumor vol. [2]: 894 ± 137 mm^3; GR number [3]: 77 ± 7 10^3 GR/cell; deaths in the treated groups [4]: did not cause deaths; deaths in the tumor-bearing groups ([4]; 60 mg/kg i.v. every 48 h): 45%; ACTH [5]: 215 ± 36 pg/mL plasma
CC[C@]1(O)C[C@@H]2CN(CCc3c([nH]c4ccccc34)[C@@](C(=O)OC)(c3cc4c(cc3OC)N(C)[C@H]3[C@@](O)(C(=O)OC)[C@H](OC(C)=O)[C@]5(CC)C=CCN6CC[C@]43[C@@H]65)C2)C1 [Vinblastine] | 0.19 ± 0.04 µM | 7.65 ± 1.35 µM | 14.5 ± 2.17 µM | –
CC(=O)O[C@H]1C(=O)[C@@]2(C)[C@H]([C@H](OC(=O)c3ccccc3)[C@]3(O)C[C@H](OC(=O)[C@H](O)[C@@H](NC(=O)c4ccccc4)c4ccccc4)C(C)=C1C3(C)C)[C@]1(OC(C)=O)CO[C@@H]1C[C@@H]2O [Paclitaxel, (2α,4α,5β,7β,10β,13α)-4,10-Bis(acetyloxy)-13-{[(2R,3S)-3-(benzoylamino)-2-hydroxy-3-phenylpropanoyl]oxy}-1,7-dihydroxy-9-oxo-5,20-epoxytax-11-en-2-yl benzoate] | 0.13 ± 0.03 µM | 0.35 ± 0.1 µM | 11.1 ± 2.15 µM | –
O=NN(CCCl)C(=O)NCCCl [BCNU, Carmustine] | 0.17 ± 0.06 µM | > 100 µM | > 100 µM | –
Arsenate | – | – | – | IC50 [6]: 65.5 ± 5.19 µM; IC50 [7]: > 100 µM; IC50 [8]: 94.4 ± 12.4 µM
CC[C@]1(O)C[C@H]2CN(CCc3c([nH]c4ccccc34)[C@@](C(=O)OC)(c3cc4c(cc3OC)N(C=O)[C@H]3[C@@](O)(C(=O)OC)[C@H](OC(C)=O)[C@]5(CC)C=CCN6CC[C@]43[C@@H]65)C2)C1 [Vincristine] | 0.15 ± 0.02 µM | 6.19 ± 2.06 µM | 12.5 ± 3.04 µM | –
Diethylmaleate [DEM] | – | – | – | Cell number ([9]; culture time 24 h): 0.49 ± 0.10 ×10^6; Cell number ([9]; culture time 36 h): 0.51 ± 0.05 ×10^6; Cell number ([9]; culture time 48 h): 0.56 ± 0.08 ×10^6; Cell number ([9]; culture time 72 h): 0.67 ± 0.06* ×10^6
Cn1nnc2c(C(N)=O)ncn2c1=O [Temozolomide] | > 100 µM | > 100 µM | > 100 µM | –
COc1cc(/C=C/C(=O)CC(=O)/C=C/c2ccc(O)c(OC)c2)ccc1O [Curc, curcumin, reference compound] | – | – | – | CRC [1]: 161 ± 17 ng/mL plasma; Tumor vol. [2]: 606 ± 126* mm^3; GR number [3]: 71 ± 12 10^3 GR/cell; deaths in the treated groups [4]: did not cause deaths; ACTH [5]: 113 ± 25 pg/mL plasma
CN(C)/N=N/c1[nH]cnc1C(N)=O [Dacarbazine] | 56.7 ± 7.46 µM | > 100 µM | > 100 µM | –
CCCC(CCC)C(=O)O [Valproic acid] | 66.2 ± 6.39 µM | > 100 µM | > 100 µM | –
CN(Cc1cnc2nc(N)nc(N)c2n1)c1ccc(C(=O)N[C@@H](CCC(=O)O)C(=O)O)cc1 [Methotrexate] | 1.35 ± 0.34 µM | > 100 µM | > 100 µM | –
COc1cc(C=Cc2ccc(OC3OC(C(=O)O)C(O)C(O)C3O)cc2)cc(OC)c1 [Pter-G, Pterostilbene 4′-O-D-glucuronide] | – | – | – | decrease of ACTH production in AtT-20 cells by pterostilbene conjugates [10]: None
COc1cc(C=Cc2ccc(OS(=O)(=O)O)cc2)cc(OC)c1 [Pter-S, pterostilbene-4′-sulfate] | – | – | – | decrease of ACTH production in AtT-20 cells by pterostilbene conjugates [10]: None
N.N.[Cl][Pt][Cl] [Cisplatin] | – | – | – | IC50 [6]: 11.2 ± 1.77 µM; IC50 [7]: > 100 µM; IC50 [8]: 44.3 ± 5.43 µM
COc1cccc2c1C(=O)c1c(O)c3c(c(O)c1C2=O)C[C@@](O)(C(C)=O)C[C@@H]3O[C@H]1C[C@H](N)[C@H](O)[C@H](C)O1 [Daunorubicin] | 1.44 ± 0.35 µM | 2.4 ± 0.73 µM | 2.61 ± 0.51 µM | –

Source: patent US11179348B2, “Combination comprising pterostilbene for the treatment of cancer” (FUNDACIÓN UNIVERSIDAD CATÓLICA DE VALENCIA SAN VICENTE …, priority 2015, dated 2021)
